This assay deals with BDF1 mice, L1210 6-MP/6-TG resistant leukemia ip, survival T/C. The experiment in a line: NCI In Vivo Anticancer Drug Screen. Data for tumor model L1210 Leukemia resistant to 6-MP and 6-Thioguanine; NSC 755, NSC 752 (intraperitoneal) in B6D2F1 (BDF1) mice. The settings on record: endpoint: mean survival time, higher = longer survival. On the procedure: The antitumor activity of compounds was measured in mice bearing transplantable tumors. Survival or tumor size were measured and the results are expressed as the measurement made in the treated group (T) divided by the measurement made in the vehicle treated control group (C). The tumor model used in this assay is L1210 Leukemia resistant to 6-MP and 6-Thioguanine; NSC 755, NSC 752 (intraperitoneal) in B6D2F1 (BDF1) mice

The mark [1] stands for this setting: dose: 1.87 mg/kg/injection, schedule: Q01DX Z (ip), vehicle: carboxymethylcellulose (CMC).
The mark [2] stands for this setting: dose: 3.75 mg/kg/injection, schedule: Q01DX Z (ip), vehicle: carboxymethylcellulose (CMC).
Setting [3] is: dose: 7.5 mg/kg/injection, schedule: Q01DX Z (ip), vehicle: carboxymethylcellulose (CMC).
Where [4] appears, read: dose: 15.0 mg/kg/injection, schedule: Q01DX Z (ip), vehicle: carboxymethylcellulose (CMC).
[5] abbreviates: dose: 2.5 mg/kg/injection, schedule: Q01DX Z (ip), vehicle: carboxymethylcellulose (CMC).
The mark [6] stands for this setting: dose: 50.0 mg/kg/injection, schedule: Q01DX Z (ip), vehicle: other.
Setting [7] is: dose: 25.0 mg/kg/injection, schedule: Q01DX Z (ip), vehicle: carboxymethylcellulose (CMC).
Where [8] appears, read: dose: 100.0 mg/kg/injection, schedule: Q01DX Z (ip), vehicle: carboxymethylcellulose (CMC).

Several values for one entry are separate records, joined by “and”; a condition that tells them apart may be missing. Equal values may be shown once. Toxic doses and inconclusive results are not listed.

Turning to `O=C(Nc1ccc(C2=NCCCN2)cc1)c1ccc(C(=O)Nc2ccc(C3=NCCCN3)cc2)cc1`, the T/C is, setting by setting: (dose: 0.46 mg/kg/injection, schedule: Q01DX Z (ip), vehicle: carboxymethylcellulose (CMC)) 106 % of control; under setting [1], 178 % of control; under setting [2], 154 % of control and 195 % of control; under setting [3], 155 % of control; under setting [4], 113 % of control.
In the case of `O=C(Nc1ccc(C2=NCCCN2)cc1)c1ccc(NC(=O)c2ccc(C3=NCCCN3)cc2)cc1`, the T/C (dose: 0.75 mg/kg/injection, schedule: Q01DX Z (ip), vehicle: carboxymethylcellulose (CMC)) is 113 % of control; the T/C (dose: 1.5 mg/kg/injection, schedule: Q01DX Z (ip), vehicle: carboxymethylcellulose (CMC)) was 116 % of control; the T/C (dose: 3.0 mg/kg/injection, schedule: Q01DX Z (ip), vehicle: carboxymethylcellulose (CMC)) was 272 % of control; the T/C (dose: 4.0 mg/kg/injection, schedule: Q01DX Z (ip), vehicle: carboxymethylcellulose (CMC)) is 235 % of control; the T/C (dose: 6.0 mg/kg/injection, schedule: Q01DX Z (ip), vehicle: carboxymethylcellulose (CMC)) was 185 % of control; the T/C (dose: 16.0 mg/kg/injection, schedule: Q01DX Z (ip), vehicle: carboxymethylcellulose (CMC)) was 106 % of control.
Consider `S=P(N1CCOCC1)(N1CC1)N1CC1`, for which the T/C reads like this: under setting [1], 90 % of control; under setting [5], 93 % of control; under setting [2], 151 % of control; (dose: 5.0 mg/kg/injection, schedule: Q01DX Z (ip), vehicle: carboxymethylcellulose (CMC)) 117 % of control; under setting [3], 116 % of control; (dose: 12.5 mg/kg/injection, schedule: Q01DX Z (ip), vehicle: carboxymethylcellulose (CMC)) 109 % of control. Also, under setting [4], the T/C is 118 % of control.
As for `O=c1cnn(C2OC(CO)C(O)C2O)c(=O)[nH]1` (configuration not stated), the T/C (dose: 62.5 mg/kg/injection, schedule: Q01DX Z (ip), vehicle: saline) was 115 % of control; the T/C (dose: 500.0 mg/kg/injection, schedule: Q01DX Z (ip), vehicle: saline) is 120 % of control; the T/C (dose: 750.0 mg/kg/injection, schedule: Q01DX Z (ip), vehicle: saline) is 110 % of control; the T/C (dose: 1000.0 mg/kg/injection, schedule: Q01DX Z (ip), vehicle: saline) was 109 % of control.
For the compound `O=C(Nc1ccc(C2=NCCN2)cc1)c1cccc(C(=O)Nc2ccc(C3=NCCN3)cc2)c1`, the T/C is 110 % of control (dose: 2.5 mg/kg/injection, schedule: Q01DX Z (ip), vehicle: water); 300 % of control (dose: 10.0 mg/kg/injection, schedule: Q01DX Z (ip), vehicle: water); 187 % of control (dose: 20.0 mg/kg/injection, schedule: Q01DX Z (ip), vehicle: water).
Take `N=C(N)c1ccc(Nc2ccc(C(=N)N)cc2)cc1`: the T/C was 112 % of control (dose: 2.0 mg/kg/injection, schedule: Q01DX Z (ip), vehicle: water); 102 % of control (dose: 4.0 mg/kg/injection, schedule: Q01DX Z (ip), vehicle: water); 104 % of control (dose: 6.0 mg/kg/injection, schedule: Q01DX Z (ip), vehicle: water); 106 % of control (dose: 8.0 mg/kg/injection, schedule: Q01DX Z (ip), vehicle: water); 104 % of control (dose: 9.37 mg/kg/injection, schedule: Q01DX Z (ip), vehicle: water); 100 % of control (dose: 18.75 mg/kg/injection, schedule: Q01DX Z (ip), vehicle: water).
With `Nc1ccc(C(=O)NO)cc1`, the T/C (dose: 112.5 mg/kg/injection, schedule: Q01DX015 (ip), vehicle: carboxymethylcellulose (CMC)) is 102 % of control; the T/C (dose: 225.0 mg/kg/injection, schedule: Q01DX015 (ip), vehicle: carboxymethylcellulose (CMC)) is 91 % of control; the T/C (dose: 450.0 mg/kg/injection, schedule: Q01DX015 (ip), vehicle: carboxymethylcellulose (CMC)) is 90 % of control; the T/C (dose: 900.0 mg/kg/injection, schedule: Q01DX015 (ip), vehicle: carboxymethylcellulose (CMC)) was 97 % of control.
Take `CSc1ncnc2c1ncn2CO`: the T/C is 104 % of control (dose: 50.0 mg/kg/injection, schedule: Q01DX009 (ip), vehicle: other) and 110 % of control (dose: 100.0 mg/kg/injection, schedule: Q01DX009 (ip), vehicle: other).
On to `CCCC(=O)OCC1OC(n2cnc3c(=S)nc[nH]c32)C(OC(=O)CCC)C1OC(=O)CCC` (configuration not stated), for which the T/C is 99 % of control (dose: 6.25 mg/kg/injection, schedule: Q01DX Z (ip), vehicle: other); 92 % of control (dose: 12.5 mg/kg/injection, schedule: Q01DX Z (ip), vehicle: other); 92 % of control (dose: 25.0 mg/kg/injection, schedule: Q01DX009 (ip), vehicle: Klucel (hydroxypropylcellulose) (HPC)); 90 % of control and 92 % of control (dose: 25.0 mg/kg/injection, schedule: Q01DX Z (ip), vehicle: other); 98 % of control (dose: 50.0 mg/kg/injection, schedule: Q01DX009 (ip), vehicle: Klucel (hydroxypropylcellulose) (HPC)); 96 % of control under setting [6]. Moreover, the T/C reads like this: (dose: 100.0 mg/kg/injection, schedule: Q01DX009 (ip), vehicle: Klucel (hydroxypropylcellulose) (HPC)) 92 % of control; (dose: 100.0 mg/kg/injection, schedule: Q01DX Z (ip), vehicle: other) 90 % of control.
Turning to `COCCCNS(=O)(=O)c1ncnc2nc[nH]c12`, the T/C is 92 % of control under setting [7] and 90 % of control under setting [8].
On to `Ic1ncnc2nc[nH]c12`, for which the T/C is, setting by setting: (dose: 62.5 mg/kg/injection, schedule: Q01DX Z (ip), vehicle: carboxymethylcellulose (CMC)) 88 % of control; (dose: 125.0 mg/kg/injection, schedule: Q01DX Z (ip), vehicle: carboxymethylcellulose (CMC)) 89 % of control; (dose: 250.0 mg/kg/injection, schedule: Q01DX Z (ip), vehicle: carboxymethylcellulose (CMC)) 89 % of control.
Take `O=C(OCC1OC(n2cnc3c(=S)nc[nH]c32)C(OC(=O)c2ccc([N+](=O)[O-])cc2)C1OC(=O)c1ccc([N+](=O)[O-])cc1)c1ccc([N+](=O)[O-])cc1` (configuration not stated): the T/C was 94 % of control (dose: 6.25 mg/kg/injection, schedule: Q01DX015 (ip), vehicle: other); 105 % of control (dose: 12.5 mg/kg/injection, schedule: Q01DX015 (ip), vehicle: other); 88 % of control (dose: 25.0 mg/kg/injection, schedule: Q01DX015 (ip), vehicle: other); 92 % of control under setting [6]; 86 % of control (dose: 400.0 mg/kg/injection, schedule: Q01DX Z (ip), vehicle: other).
In the case of `CC(=O)Nc1ccc2nc3ccc(NC(C)=O)cc3[n+](-c3ccccc3)c2c1`, the T/C (dose: 1.25 mg/kg/injection, schedule: Q01DX Z (ip), vehicle: carboxymethylcellulose (CMC)) is 95 % of control; the T/C under setting [5] was 103 % of control; the T/C under setting [3] is 154 % of control; the T/C under setting [7] was 202 % of control; the T/C (dose: 50.0 mg/kg/injection, schedule: Q01DX Z (ip), vehicle: carboxymethylcellulose (CMC)) was 176 % of control; the T/C (dose: 75.0 mg/kg/injection, schedule: Q01DX Z (ip), vehicle: carboxymethylcellulose (CMC)) was 180 % of control. Moreover, the T/C reads like this: under setting [8], 121 % of control; (dose: 200.0 mg/kg/injection, schedule: Q01DX Z (ip), vehicle: carboxymethylcellulose (CMC)) 150 % of control; (dose: 300.0 mg/kg/injection, schedule: Q01DX Z (ip), vehicle: carboxymethylcellulose (CMC)) 122 % of control.
As to `Cc1cc(N(CCCl)CCCl)ccc1N=Nc1ccccc1C(=O)O`, the T/C is 119 % of control (dose: 4.5 mg/kg/injection, schedule: Q01DX Z (ip), vehicle: carboxymethylcellulose (CMC)); 124 % of control (dose: 9.0 mg/kg/injection, schedule: Q01DX Z (ip), vehicle: carboxymethylcellulose (CMC)); 114 % of control (dose: 18.75 mg/kg/injection, schedule: Q01DX Z (ip), vehicle: carboxymethylcellulose (CMC)); 123 % of control under setting [7]; 90 % of control (dose: 37.5 mg/kg/injection, schedule: Q01DX Z (ip), vehicle: carboxymethylcellulose (CMC)).
For the compound `Nc1ccc(OC(=O)Oc2ccc(N)cc2)cc1`, the T/C was 95 % of control (dose: 62.0 mg/kg/injection, schedule: Q01DX Z (ip), vehicle: saline); 152 % of control (dose: 125.0 mg/kg/injection, schedule: Q01DX Z (ip), vehicle: saline); 103 % of control (dose: 250.0 mg/kg/injection, schedule: Q01DX Z (ip), vehicle: saline).

Values taken from PubChem BioAssay AID308 (DTP/NCI, 2004).
